In PubChem BioAssay AID2060507 (Molecular Pharmacology Branch, DTP, NCI, 2025):

Tested on: 519858-162-T-J1-PDC complex spheroid viability
Assay: Anticancer human tumor 519858-162-T-J1-PDC patient-derived colon adenocarcinoma cell line growth inhibition [GQUAD]
Settings: for IC50: curve of first compound; for viability, T/C: stronger effect = lower value
How it was run: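 Viability of tumor cells grown as complex spheroids with endothelial and stromal cells, exposed to drug combinations. Top concentration at or near clinical Cmax (else 10 microM), diluted in half-log increments.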

[1] = second compound 0.0316 µM, first compound 0.0316 µM
[2] = second compound 0.0316 µM, first compound 0.1 µM
[3] = second compound 0.0316 µM, first compound 0.316 µM
[4] = second compound 0.0316 µM, first compound 1 µM
[5] = second compound 0.0316 µM, first compound 3.16 µM
[6] = second compound 0.0316 µM, first compound 10 µM
[7] = second compound 0.1 µM, first compound 0.0316 µM
[8] = second compound 0.1 µM, first compound 0.1 µM
[9] = second compound 0.1 µM, first compound 0.316 µM
[10] = second compound 0.1 µM, first compound 1 µM
[11] = second compound 0.1 µM, first compound 3.16 µM
[12] = second compound 0.1 µM, first compound 10 µM
[13] = second compound 0.316 µM, first compound 0.0316 µM
[14] = second compound 0.316 µM, first compound 0.1 µM
[15] = second compound 0.316 µM, first compound 0.316 µM
[16] = second compound 0.316 µM, first compound 1 µM
[17] = second compound 0.316 µM, first compound 3.16 µM
[18] = second compound 0.316 µM, first compound 10 µM
[19] = second compound 1 µM, first compound 0.0316 µM
[20] = second compound 1 µM, first compound 0.1 µM
[21] = second compound 1 µM, first compound 0.316 µM
[22] = second compound 1 µM, first compound 1 µM
[23] = second compound 1 µM, first compound 3.16 µM
[24] = second compound 1 µM, first compound 10 µM
[25] = second compound 3.16 µM, first compound 0.0316 µM
[26] = second compound 3.16 µM, first compound 0.1 µM
[27] = second compound 3.16 µM, first compound 0.316 µM
[28] = second compound 3.16 µM, first compound 1 µM
[29] = second compound 3.16 µM, first compound 3.16 µM
[30] = second compound 3.16 µM, first compound 10 µM
[31] = second compound 10 µM, first compound 0.0316 µM
[32] = second compound 10 µM, first compound 0.1 µM
[33] = second compound 10 µM, first compound 0.316 µM
[34] = second compound 10 µM, first compound 1 µM
[35] = second compound 10 µM, first compound 3.16 µM
[36] = second compound 10 µM, first compound 10 µM
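Wherever viability, T/C is given: 100% = DMSO vehicle control viability.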

CC(C)n1c(=O)n(C)c2cnc3cc(F)c(-c4ccc(OCCCN5CCCCC5)nc4)cc3c21 + Cc1cnc(CNC(=O)c2c(=O)c3ccc(N4CCCN(C)CC4)nc3n3c2sc2ccccc23)cn1
IC50 (second compound 0.0316 µM): > 10 µM
IC50 (second compound 0.1 µM): > 10 µM
IC50 (second compound 0.316 µM): 10 µM
IC50 (second compound 1 µM): < 0.0316 µM
IC50 (second compound 3.16 µM): < 0.0316 µM
IC50 (second compound 10 µM): < 0.0316 µM
viability, T/C [1]: 55.4%
viability, T/C [2]: 61.4%
viability, T/C [3]: 73.1%
viability, T/C [4]: 53.7%
viability, T/C [5]: 70.2%
viability, T/C [6]: 66.4%
viability, T/C [7]: 66.8%
viability, T/C [8]: 47.8%
viability, T/C [9]: 64.3%
viability, T/C [10]: 60.6%
viability, T/C [11]: 56.3%
viability, T/C [12]: 54.6%
viability, T/C [13]: 66.7%
viability, T/C [14]: 68.9%
viability, T/C [15]: 52.3%
viability, T/C [16]: 48.5%
viability, T/C [17]: 49.8%
viability, T/C [18]: 61%
viability, T/C [19]: 44.2%
viability, T/C [20]: 45.9%
viability, T/C [21]: 44.2%
viability, T/C [22]: 46.7%
viability, T/C [23]: 44.1%
viability, T/C [24]: 43%
viability, T/C [25]: 35.6%
viability, T/C [26]: 25.4%
viability, T/C [27]: 54.8%
viability, T/C [28]: 44.1%
viability, T/C [29]: 60.2%
viability, T/C [30]: 51.5%
viability, T/C [31]: 37.1%
viability, T/C [32]: 43.6%
viability, T/C [33]: 46.7%
viability, T/C [34]: 52.5%
viability, T/C [35]: 59.7%
viability, T/C [36]: 68.8%

CC1COCCN1c1cc(-c2ccnn2C)c2ccnc(-c3ccn[nH]3)c2n1 (stereo unspecified) + Cc1cnc(CNC(=O)c2c(=O)c3ccc(N4CCCN(C)CC4)nc3n3c2sc2ccccc23)cn1
IC50 (second compound 0.0316 µM): 1.54 µM
IC50 (second compound 0.1 µM): 1.72 µM
IC50 (second compound 0.316 µM): 0.173 µM
IC50 (second compound 1 µM): 0.232 µM
IC50 (second compound 3.16 µM): < 0.0316 µM
IC50 (second compound 10 µM): < 0.0316 µM
viability, T/C [1]: 98%
viability, T/C [2]: 58.7%
viability, T/C [3]: 77.4%
viability, T/C [4]: 60.4%
viability, T/C [5]: 38.9%
viability, T/C [6]: 24.4%
viability, T/C [7]: 58.7%
viability, T/C [8]: 82.7%
viability, T/C [9]: 95.9%
viability, T/C [10]: 67.7%
viability, T/C [11]: 29.1%
viability, T/C [12]: 30.9%
viability, T/C [13]: 112%
viability, T/C [14]: 52.6%
viability, T/C [15]: 49.8%
viability, T/C [16]: 44.2%
viability, T/C [17]: 28.3%
viability, T/C [18]: 36.6%
viability, T/C [19]: 57.7%
viability, T/C [20]: 62.4%
viability, T/C [21]: 43.1%
viability, T/C [22]: 38.1%
viability, T/C [23]: 28.2%
viability, T/C [24]: 26.2%
viability, T/C [25]: 44.2%
viability, T/C [26]: 33%
viability, T/C [27]: 37.4%
viability, T/C [28]: 37.9%
viability, T/C [29]: 42.9%
viability, T/C [30]: 29.8%
viability, T/C [31]: 45.6%
viability, T/C [32]: 41.2%
viability, T/C [33]: 26.7%
viability, T/C [34]: 29.1%
viability, T/C [35]: 28.8%
viability, T/C [36]: 32.5%

CC1COCCN1c1cc(C2(O)CC3CCC(C2)O3)c2cnn(-c3ccn[nH]3)c2n1 (stereo unspecified) + Cc1cnc(CNC(=O)c2c(=O)c3ccc(N4CCCN(C)CC4)nc3n3c2sc2ccccc23)cn1
IC50 (second compound 0.0316 µM): 6.31 µM
IC50 (second compound 0.1 µM): 3.16 µM
IC50 (second compound 0.316 µM): 3.2 µM
IC50 (second compound 1 µM): 0.235 µM
IC50 (second compound 3.16 µM): < 0.0316 µM
IC50 (second compound 10 µM): < 0.0316 µM
viability, T/C [1]: 64.5%
viability, T/C [2]: 77.8%
viability, T/C [3]: 92.2%
viability, T/C [4]: 77.6%
viability, T/C [5]: 82%
viability, T/C [6]: 30.6%
viability, T/C [7]: 106%
viability, T/C [8]: 85.8%
viability, T/C [9]: 96.3%
viability, T/C [10]: 44.8%
viability, T/C [11]: 61.3%
viability, T/C [12]: 57.7%
viability, T/C [13]: 65.6%
viability, T/C [14]: 60%
viability, T/C [15]: 51.7%
viability, T/C [16]: 62.7%
viability, T/C [17]: 49.2%
viability, T/C [18]: 29.9%
viability, T/C [19]: 59.3%
viability, T/C [20]: 60.8%
viability, T/C [21]: 41.6%
viability, T/C [22]: 43.4%
viability, T/C [23]: 50.5%
viability, T/C [24]: 39.6%
viability, T/C [25]: 45.7%
viability, T/C [26]: 38.9%
viability, T/C [27]: 44.9%
viability, T/C [28]: 42.4%
viability, T/C [29]: 26.8%
viability, T/C [30]: 23.8%
viability, T/C [31]: 37.7%
viability, T/C [32]: 44%
viability, T/C [33]: 37.7%
viability, T/C [34]: 39.2%
viability, T/C [35]: 34.1%
viability, T/C [36]: 23.7%
